For data set [1], the system named is Key Grass and Sedge Weeds as well as Grass Crops. As to the kind of experiment: Post-emergent Test II herbicidal activity (Table 16). Particulars: post-emergence, 336 h; for pest or weed control at 35 g/ha: 35 g ai/ha; for pest or weed control at 70 g/ha: 70 g ai/ha; for pest or weed control at 140 g/ha: 140 g ai/ha. In kind it is in vivo. On the procedure: Post-emergent Test II: Seeds or nutlets of the desired test plant species were planted in Sun Gro Metro-Mix® 360 planting mixture, which typically has a pH of 6.0 to 6.8 and an organic matter content of about 30 percent, in plastic pots with a surface area of 64 square centimeters. When required to ensure good germination and healthy plants, a fungicide treatment and/or other chemical or physical treatment was applied. The plants were grown for 7-21 d in a greenhouse with an approximate 15 h photoperiod which was maintained at about 23-29° C. during the day and 22-28° C. during the night. Nutrients and water were added on a regular basis and supplemental lighting was provided with overhead metal halide 1000-Watt lamps as necessary. The plants were employed for testing when they reached the first or second true leaf stage.
A weighed amount, determined by the highest rate to be tested, of each test compound was placed in a 25 mL glass vial and was dissolved in 4 mL of a 97:3 v/v mixture of acetone and DMSO to obtain concentrated stock solutions. […] The concentrated stock solutions obtained were diluted with 20 mL of an aqueous mixture containing acetone, water, isopropyl alcohol, DMSO, Atplus 411F crop oil concentrate, and Triton® X-155 surfactant in a 48.5:39:10:1.5:1.0:0.02 v/v ratio to obtain spray solutions containing the highest application rates. Additional application rates were obtained by serial dilution of 12 mL of the high rate solution into a solution containing 2 mL of 97:3 v/v mixture of acetone and DMSO and 10 mL of an aqueous mixture containing acetone, water, isopropyl alcohol, DMSO, Atplus 411F crop oil concentrate, and Triton X-155 surfactant in a 48.5:39:10:1.5:1.0:0.02 v/v ratio to obtain 1/2×, 1/4×, 1/8× and 1/16× rates of the high rate. Compound requirements are based upon a 12 mL application volume at a rate of 187 liters per hectare (L/ha). Formulated compounds were applied to the plant material with an overhead Mandel track sprayer equipped with 8002E nozzles calibrated to deliver 187 L/ha over an application area of 0.503 square meters at a spray height of 18 inches (43 cm) above the average plant canopy height. Control plants were sprayed in the same manner with the solvent blank.
The treated plants and control plants were placed in a greenhouse as described above and watered by subirrigation to prevent wash-off of the test compounds. After 14 d, the condition of the test plants as compared with that of the untreated plants was determined visually and scored on a scale of 0 to 100 percent where 0 corresponds to no injury and 100 corresponds to complete kill.

[2] abbreviates: Cyperus esculentus, yellow nutsedge (Cyperus esculentus), 14 d, read-out: Visual Growth Reduction (%) 14 Days After Application, CYPES.
Where [3] appears, read: Echinochloa crus-galli, barnyardgrass (Echinochloa crus-galli), 14 d, read-out: Visual Growth Reduction (%) 14 Days After Application, ECHCG.
Where [4] appears, read: Oryza sativa, rice (Oryza sativa), 14 d, read-out: Visual Growth Reduction (%) 14 Days After Application, ORYSA.
[5] abbreviates: Setaria faberi, giant foxtail (Setaria faberi), 14 d, read-out: Visual Growth Reduction (%) 14 Days After Application, SETFA.
Where [6] appears, read: Triticum aestivum, wheat, spring (Triticum aestivum), 14 d, read-out: Visual Growth Reduction (%) 14 Days After Application, TRZAS.
Where [7] appears, read: Zea mays, maize, corn (Zea mays), 14 d, read-out: Visual Growth Reduction (%) 14 Days After Application, ZEAMX.

Drawing on patent US20170050957A1, “4-AMINO-6-(HETEROCYCLIC)PICOLINATES AND 6-AMINO-2-(HETEROCYCLIC)PYRIMIDINE-4-CARBOXYLATES AND THEIR USE AS HERBICIDES” (Dow AgroSciences LLC, priority 2013, published 2017), this text covers pest or weed control and melting point for 8 compounds.

Where two headings read alike, the source gives them in different places.

A word on the melting point: it is the temperature, or range, at which the solid turns liquid. In turn, `COC(=O)c1nc(-c2ccc3ccn([Si](C(C)C)(C(C)C)C(C)C)c3c2F)c(F)c(N)c1Cl` [Compound 1.12, methyl 4-amino-3-chloro-5-fluoro-6-(7-fluoro-1-(triisopropylsilyl)-1H-indol-6-yl)picolinate] registered a melting point of 181 to 182 °C. In data set [1] (setting [2]), the pest or weed control at 35 g/ha was in the range of 0 to 29%, the pest or weed control at 70 g/ha is 0 to 29% and the pest or weed control at 140 g/ha was in the range of 0 to 29%. Also, in data set [1] (setting [3]), the pest or weed control at 35 g/ha was 0 to 29%, the pest or weed control at 70 g/ha fell in the range of 0 to 29% and the pest or weed control at 140 g/ha is 85 to 94%. For the same compound, in data set [1] (setting [4]), the pest or weed control at 35 g/ha is 0 to 29%, the pest or weed control at 70 g/ha is 0 to 29% and the pest or weed control at 140 g/ha is 0 to 29%. Besides, in data set [1] (setting [5]), the pest or weed control at 35 g/ha was in the range of 75 to 84%, the pest or weed control at 70 g/ha fell in the range of 60 to 74% and the pest or weed control at 140 g/ha was 75 to 84%. For the same compound, in data set [1] (setting [6]), the pest or weed control at 35 g/ha lay in the range of 45 to 59%, the pest or weed control at 70 g/ha was in the range of 0 to 29% and the pest or weed control at 140 g/ha lay within 0 to 29%. Moreover, in data set [1] (setting [7]), the pest or weed control at 35 g/ha fell in the range of 0 to 29%, the pest or weed control at 70 g/ha lay within 0 to 29% and the pest or weed control at 140 g/ha fell in the range of 0 to 29%.

`COC(=O)c1nc(-c2ccc3[nH]nnc3c2)cc(N)c1Cl` [Compound 9.01] had a melting point of 129 to 133 °C. Moreover, the pest or weed control at 140 g/ha in data set [1] (Cyperus esculentus, yellow nutsedge (Cyperus esculentus), 14 days after application, read-out: Visual Growth Reduction (%) 14 Days After Application CYPES) fell in the range of 95 to 100%. Further, the pest or weed control at 140 g/ha in data set [1] (Echinochloa crus-galli, barnyardgrass (Echinochloa crus-galli), 14 days after application, read-out: Visual Growth Reduction (%) 14 Days After Application ECHCG) was 95 to 100%. In addition, in data set [1] (Oryza sativa, rice (Oryza sativa), 14 days after application, read-out: Visual Growth Reduction (%) 14 Days After Application ORYSA), the pest or weed control at 140 g/ha is 0 to 29%. Moreover, in data set [1] (Setaria faberi, giant foxtail (Setaria faberi), 14 days after application, read-out: Visual Growth Reduction (%) 14 Days After Application SETFA), the pest or weed control at 140 g/ha is 0 to 29%. Moreover, the pest or weed control at 140 g/ha in data set [1] (Triticum aestivum, wheat, spring (Triticum aestivum), 14 days after application, read-out: Visual Growth Reduction (%) 14 Days After Application TRZAS) was 0 to 29%. The pest or weed control at 140 g/ha in data set [1] (Zea mays, maize, corn (Zea mays), 14 days after application, read-out: Visual Growth Reduction (%) 14 Days After Application ZEAMX) fell in the range of 0 to 29%.

`COC(=O)c1nc(-c2ccc(Cl)c3cc[nH]c23)nc(N)c1OC` [Compound 1.50]: the melting point lay in the range of 147 to 149 °C.

In turn, `C=Cc1c(N)nc(-c2ccc3cc[nH]c3c2F)nc1C(=O)OC` [Compound 1.38] gave a melting point of 181 to 182 °C.

The compound `Nc1c(F)c(-c2ccc3ccoc3c2)nc(C(=O)O)c1Cl` [Compound 2.08] showed a melting point of 168 to 170 °C. For the same compound, in data set [1] (setting [2]), the pest or weed control at 35 g/ha fell in the range of 0 to 29%, the pest or weed control at 70 g/ha fell in the range of 0 to 29% and the pest or weed control at 140 g/ha is 0 to 29%. Further, in data set [1] (setting [3]), the pest or weed control at 35 g/ha was 85 to 94%, the pest or weed control at 70 g/ha lay in the range of 85 to 94% and the pest or weed control at 140 g/ha lay within 95 to 100%. Further, in data set [1] (setting [4]), the pest or weed control at 35 g/ha lay in the range of 0 to 29%, the pest or weed control at 70 g/ha was in the range of 30 to 44% and the pest or weed control at 140 g/ha was in the range of 30 to 44%. For the same compound, in data set [1] (setting [5]), the pest or weed control at 35 g/ha was in the range of 45 to 59%, the pest or weed control at 70 g/ha lay in the range of 60 to 74% and the pest or weed control at 140 g/ha fell in the range of 85 to 94%. Also, in data set [1] (setting [6]), the pest or weed control at 35 g/ha is 0 to 29%, the pest or weed control at 70 g/ha lay in the range of 0 to 29% and the pest or weed control at 140 g/ha is 0 to 29%. Also, in data set [1] (setting [7]), the pest or weed control at 35 g/ha fell in the range of 45 to 59%, the pest or weed control at 70 g/ha lay in the range of 60 to 74% and the pest or weed control at 140 g/ha was 60 to 74%.

`Nc1c(F)c(-c2ccc3sccc3c2)nc(C(=O)O)c1Cl` [Compound 3.04] registered a melting point of 149 to 150 °C.

With `COC(=O)c1nc(-c2ccc3occc3c2)c(F)c(N)c1Cl` [Compound 2.01], the melting point lay within 114 to 117 °C.

For `Nc1c(F)c(-c2ccc3[nH]ncc3c2)nc(C(=O)O)c1Cl` [Compound 4.02], the melting point fell in the range of 284 to 287 °C.
